Test results published in patent publication US7122193B1 (priority 1994, dated 2006).

Legend:
Format in all cases: cell-based, mouse
[1] = tested on: peptide-primed T lymphocytes from BALB/c mice
[2] = tested on: TCR of peptide-primed lymph node T-cells
[3] = tested on: peptide-primed T lymphocytes from BALB/c mice; remark: listed apart in the source

Substance: CH3CO-(D)Thr-(D)Asp-(D)Lys-(D)Tyr-(D)Thr-(D)Ile-(D)Lys-(D)Trp-(D)Val-(D)Ala-(D)Phe-(D)Leu-(D)Lys-NH2
- IL-2 production of lymph node cells of mice immunized with parent peptide 103–115, stimulated in vitro by the peptide [1]: No IL-2 production was observed
- maximal IL-2 secretion measured using CTL-L cells in the presence of Con A [1]: 5 570 cpm
- IL-2 secretion by T-cells from mice immunized against the L-peptide 103–115 in the presence of the peptide [2]: remains unchanged
- proliferation of T-lymphocytes of mice immunized with retro-inverso analogue 103–115, in response to the peptide [3]: proliferated in response to the homologous peptide
- proliferation of lymph node cells of mice immunized with parent peptide 103–115, stimulated in vitro by the peptide [3]: did not proliferate in vitro
